In patent US8119616B2, “Formulation of quinazoline based EGFR inhibitors containing a zinc binding moiety” (Curis, Inc., priority 2007, dated 2012):

How the values were obtained:
HDAC = system: T1, HDAC; assay: HDAC fluorimetric enzyme assay (HeLa nuclear extract); assay type: biochemical; conditions: FIG. 1
T1 construct: rows headed: HDAC IC50
Description: HDAC inhibitors were screened using an HDAC fluorimetric assay kit (AK-500, Biomol, Plymouth Meeting, Pa.). […] Fluorescence was measured on a WALLAC Victor 2 plate reader and reported as relative fluorescence units (RFU). Data were plotted using GraphPad Prism (v4.0a) and IC50's calculated using a sigmoidal dose response curve fitting algorithm. Each assay was setup as follows: Defrosted all kit components and kept on ice until use. […] Prepared dilutions of Trichostatin A (TSA, positive control) and tested compounds in assay buffer (5× of final concentration). Diluted Fluor de Lys™ Substrate in assay buffer to 100 uM (50 fold=2× final). Diluted Fluor de Lys™ developer concentrate 20-fold (e.g. 50 μl plus 950 μl Assay Buffer) in cold assay buffer. Second, diluted the 0.2 mM Trichostatin A 100-fold in the 1× Developer (e.g. 10 μl in 1 ml; final Trichostatin A concentration in the 1× Developer=2 μM; final concentration after addition to HDAC/Substrate reaction=1 μM). Added Assay buffer, diluted trichostatin A or test inhibitor to appropriate wells of the microtiter plate. Added diluted HeLa extract or other HDAC sample to all wells except for negative controls.

human EGFR = biological target: T2, human EGFR (Homo sapiens, UniProt P00533); assay: HTScan EGF Receptor Kinase assay; assay type: biochemical
T2 construct: human EGFR (His672-Ala1210); purchased Cell Signaling Technologies; host or cells: baculovirus expression system
Description: The ability of compounds to inhibit receptor kinase (EGFR) activity was assayed using HTScan™ EGF Receptor Kinase Assay Kits (Cell Signaling Technologies, Danvers, Mass.). […] The protein was purified by one-step affinity chromatography using glutathione-agarose.
Immediately transfer enzyme from −80° C. to ice. Allowed enzyme to thaw on ice. […] Returned immediately to ice. […] Incubated reaction plate at room temperature for 30 minutes. […] Added 100 μl/well primary antibody. Incubated at room temperature for 60 minutes. […] Added 100 μl/well diluted antibody. Incubated at room temperature for 30 minutes. […] Incubated at room temperature for 5 minutes.

Lung_H1975 = assay: Cell proliferation assay (ATPlite); assay type: cell-based; conditions: 72 hours, 0.5% fetal bovine serum
Description: (§1) A representative number of compounds were assayed against several different cell lines using the cell proliferation assay:
(§2) Cell Proliferation Assay:
(§3) Cancer cell lines were plated at 5,000 to 10,000 per well in 96-well flatted bottomed plates with various concentration of compounds. The cells were incubated with compounds for 72 hours in the presence of 0.5% of fetal bovine serum. Growth inhibition was accessed by adenosine triphosphate (ATP) content assay using Perkin Elmer ATPlite kit. ATPlite is an ATP monitoring system based on firefly luciferase. Briefly, 25 μl of mammalian cell lysis solution was added to 50 μl of phenol red-free culture medium per well to lyse the cells and stabilize the ATP. 25 μl of substrate solution was then added to the well and subsequently the luminescence was measured.

Lung_H2122 = assay: Cell proliferation assay (ATPlite); assay type: cell-based; conditions: 72 hours, 0.5% fetal bovine serum
Description: as §1, §2, §3

Lung_H358 = assay: Cell proliferation assay (ATPlite); assay type: cell-based; conditions: 72 hours, 0.5% fetal bovine serum
Description: as §1, §2, §3

Lung_H460 = assay: Cell proliferation assay (ATPlite); assay type: cell-based; conditions: 72 hours, 0.5% fetal bovine serum
Description: as §1, §2, §3

Pancreas_BxPC3 = assay: Cell proliferation assay (ATPlite); assay type: cell-based; conditions: 72 hours, 0.5% fetal bovine serum
Description: as §1, §2, §3

Pancreas_Capan1 = assay: Cell proliferation assay (ATPlite); assay type: cell-based; conditions: 72 hours, 0.5% fetal bovine serum
Description: as §1, §2, §3

Prostate_PC3 = assay: Cell proliferation assay (ATPlite); assay type: cell-based; conditions: 72 hours, 0.5% fetal bovine serum
Description: as §1, §2, §3

Colon_HCT116 = assay: Cell proliferation assay (ATPlite); assay type: cell-based; conditions: 72 hours, 0.5% fetal bovine serum
Description: as §1, §2, §3

Pancreas_CFPAC = assay: Cell proliferation assay (ATPlite); assay type: cell-based; conditions: 72 hours, 0.5% fetal bovine serum
Description: as §1, §2, §3

Pancreas_HPAC = assay: Cell proliferation assay (ATPlite); assay type: cell-based; conditions: 72 hours, 0.5% fetal bovine serum
Description: as §1, §2, §3

Pancreas_MiaPaCa2 = assay: Cell proliferation assay (ATPlite); assay type: cell-based; conditions: 72 hours, 0.5% fetal bovine serum
Description: as §1, §2, §3

Pancreas_PANC1 = assay: Cell proliferation assay (ATPlite); assay type: cell-based; conditions: 72 hours, 0.5% fetal bovine serum
Description: as §1, §2, §3

Lung_H1703 = assay: Cell proliferation assay (ATPlite); assay type: cell-based; conditions: 72 hours, 0.5% fetal bovine serum
Description: as §1, §2, §3

Lung_HCC827 = assay: Cell proliferation assay (ATPlite); assay type: cell-based; conditions: 72 hours, 0.5% fetal bovine serum
Description: Cancer cell lines were plated at 5,000 to 10,000 per well in 96-well flatted bottomed plates with various concentration of compounds. […] Growth inhibition was accessed by adenosine triphosphate (ATP) content assay using Perkin Elmer ATPlite kit. […] Briefly, 25 μl of mammalian cell lysis solution was added to 50 μl of phenol red-free culture medium per well to lyse the cells and stabilize the ATP. 25 μl of substrate solution was then added to the well and subsequently the luminescence was measured.

A549 NSCLC = A549 NSCLC Xenograft model; assay type: in vivo, mice; conditions: compared with vehicle or control
Description: A representative protocol for the in vivo experiment is as followed:
1-10×10^6 human cancer cells were implanted subcutaneously to the athymic (nu/nu) mice. When the tumors reached about 100 mm^3 in volume, the mice were treated with the compound by tail vein infusion. Routinely 5 groups (8-12 mice per group) are needed for a typical efficacy study, including one negative control, one positive control, and three testing groups for 3 dose levels of the same compound. Usually a 7-7-5 (on-off-on) regimen was used for one typical study. The tumor size was measured with an electronic caliper and body weight measured with a scale twice weekly. The tumors were removed from euthanized mice at the end of the study. One half of each tumor was frozen in dry ice and stored at −80° C. for PK or Western blot analysis. The other half was fixed with formalin. The fixed tissues were processed, embedded in paraffin and sectioned for immunohistochemistry staining. Protocol for Radioisotope assay for HER2

Dilution study with D5W = assay type: physicochemical; conditions: 30% CAPTISOL solution

T2 sequence (P00533 672-1210): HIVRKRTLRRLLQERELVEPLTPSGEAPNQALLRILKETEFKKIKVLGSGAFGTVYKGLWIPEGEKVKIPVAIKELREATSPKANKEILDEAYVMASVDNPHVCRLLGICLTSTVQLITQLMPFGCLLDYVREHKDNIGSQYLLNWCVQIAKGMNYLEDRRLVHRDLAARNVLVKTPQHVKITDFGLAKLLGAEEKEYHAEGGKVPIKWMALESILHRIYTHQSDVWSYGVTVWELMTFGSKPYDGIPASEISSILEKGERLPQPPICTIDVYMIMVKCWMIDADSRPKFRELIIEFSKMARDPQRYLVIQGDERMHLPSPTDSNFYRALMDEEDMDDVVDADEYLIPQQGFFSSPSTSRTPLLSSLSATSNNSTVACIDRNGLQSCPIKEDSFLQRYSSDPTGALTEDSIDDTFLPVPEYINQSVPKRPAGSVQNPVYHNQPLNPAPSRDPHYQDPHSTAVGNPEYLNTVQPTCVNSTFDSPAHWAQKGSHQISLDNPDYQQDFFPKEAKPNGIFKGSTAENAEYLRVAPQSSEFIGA

Compound | IC50 (Pancreas_BxPC3) [µM] | IC50 (Pancreas_CFPAC) [µM] | IC50 (Pancreas_HPAC) [µM] | IC50 (Pancreas_MiaPaCa2) [µM] | IC50 (Pancreas_PANC1) [µM] | further results
COc1cc2ncnc(Nc3ccc(F)c(Cl)c3)c2cc1OCCCCCCC(=O)NO [Compound 6, 7-(4-(3-Chloro-4-fluorophenylamino)-7-methoxyquinazolin-6-yloxy)-N-hydroxyheptanamide] | 0.1 to 1 | – | – | – | – | activity in HDAC enzyme assay compared with erlotinib and SAHA (HDAC): more active than erlotinib and SAHA; activity in EFGR enzyme assay compared with erlotinib and SAHA (human EGFR; FIG. 1): more active than erlotinib and SAHA; IC50 (Lung_H1975): 0.1 to 1 µM; IC50 (Lung_H2122): 0.1 to 1 µM; IC50 (Lung_H358): 0.1 to 1 µM; IC50 (Lung_H460): 0.1 to 1 µM; IC50 (Pancreas_Capan1): 1 to 10 µM; IC50 (Prostate_PC3): 0.1 to 1 µM
O=C(CCCCCCOc1ccc2ncnc(Nc3ccc(F)c(Cl)c3)c2c1)NO [Compound 18, 7-(4-(3-chloro-4-fluorophenylamino)quinazolin-6-yloxy)-N-hydroxyheptanamide] | – | 0.1 to 1 | 1 to 10 | 0.1 to 1 | 0.1 to 1 | IC50 (Colon_HCT116): 0.1 to 1 µM
COc1cc2ncnc(Nc3ccc(F)c(Cl)c3)c2cc1NC(=O)CCCCCCC(=O)NO [Compound 40, N^1-(4-(3-chloro-4-fluorophenylamino)-7-methoxyquinazolin-6-yl)-N^8-hydroxyoctanediamide] | – | 1 to 10 | 1 to 10 | 1 to 10 | 1 to 10 | –
C#Cc1cccc(Nc2ncnc3cc(OC)c(NC(=O)CCCCCCC(=O)NO)cc23)c1 [Compound 44, N^1-(4-(3-ethynylphenylamino)-7-methoxyquinazolin-6-yl)-N^8-hydroxyoctanediamide] | 1 to 10 | – | – | – | – | IC50 (Lung_H1703): 1 to 10 µM; IC50 (Lung_H1975): 1 to 10 µM; IC50 (Lung_H2122): 1 to 10 µM; IC50 (Lung_H358): 1 to 10 µM; IC50 (Lung_H460): 1 to 10 µM; IC50 (Pancreas_Capan1): 1 to 10 µM; IC50 (Lung_HCC827): 0.1 to 1 µM
COc1cc2ncnc(Nc3ccc(F)c(Cl)c3)c2cc1OCCOc1ccc(/C=C/C(=O)NO)cc1 [Compound 66, (E)-3-(4-(2-(4-(3-chloro-4-fluorophenylamino)-7-methoxyquinazolin-6-yloxy)ethoxy)phenyl)-N-hydroxyacrylamide] | 1 to 10 | – | 1 to 10 | 1 to 10 | 1 to 10 | –
COCCOc1cc2ncnc(Nc3ccc(F)c(Cl)c3)c2cc1NC(=O)CCCCCCC(=O)NO [Compound 70, N^1-(4-(3-chloro-4-fluorophenylamino)-7-(2-methoxyethoxy)quinazolin-6-yl)-N^8-hydroxyoctanediamide] | – | 1 to 10 | > 10 | 1 to 10 | 1 to 10 | IC50 (human EGFR): < 0.1 µM
COc1cc2ncnc(N[C@H](C)c3ccccc3)c2cc1OCCCCCC(=O)NO [Compound 77, (R)—N-hydroxy-6-(7-methoxy-4-(1-phenylethylamino)quinazolin-6-yloxy)-hexanamide] | – | 1 to 10 | > 10 | 0.1 to 1 | > 10 | –
COc1cc2ncnc(N[C@H](C)c3ccccc3)c2cc1OCCCCCCC(=O)NO [Compound 79, (R)—N-hydroxy-7-(7-methoxy-4-(1-phenylethylamino)quinazolin-6-yloxy)heptanamide] | – | 1 to 10 | > 10 | 1 to 10 | 1 to 10 | –
COc1cc2ncnc(NCc3ccccc3)c2cc1OCCCCCCC(=O)NO [Compound 85, 7-(4-(Benzylamino)-7-methoxyquinazolin-6-yloxy)-N-hydroxyheptanamide] | 0.1 to 1 | – | 1 to 10 | 1 to 10 | 1 to 10 | IC50 (Colon_HCT116): 0.1 to 1 µM
COc1cc2ncnc(Nc3ccc(F)c(Cl)c3)c2cc1OCCOc1ccc(C(=O)NO)cc1 [Compound 92, 4-(2-(4-(3-chloro-4-fluorophenylamino)-7-methoxyquinazolin-6-yloxy)ethoxy)-N-hydroxybenzamide] | – | – | – | – | – | IC50 (human EGFR): < 0.1 µM
C#Cc1cccc(Nc2ncnc3cc(OCCOC)c(OCCOC)cc23)c1 [Erlotinib, reference compound] | – | – | – | – | – | effect on tumor size / tumor growth (A549 NSCLC): did not significantly affect tumor size
Tartaric Acid | – | – | – | – | – | Dilution with D5W (Dilution study with D5W): >50x
